The text below walks through data of patent US11053221B2, “Substituted pyrimidines for inhibiting embryonic leucine zipper kinase activity” (Arrien Pharmaceuticals LLC, priority 2018, dated 2021).

In one assay the target is T1, MELK (Homo sapiens, UniProt Q14680).
T1 construct: purchased Reaction Biology Corporation
The experiment in a line: HotSpot kinase assay, MELK. Type of assay: biochemical. The note with it: HotSpot radiometric 33P ATP assay, 25° C., 120 min. The protocol:
(§1) In vitro profiling of the MELK, MELK (T460M) kinase panel was performed at Reaction Biology Corporation using the “HotSpot” assay platform. In vitro profiling of the FLT3, FLT3 mutant forms; FLT3 (D835Y), FLT3 (F594R595insR), FLT3 (F594R595insREY), FLT3 (ITD), FLT3 (ITD)-NPOS, FLT3 (ITD)-W51 and FLT3 (R595_E596insEY) kinase panel is performed in the same manner.
(§2) Briefly, specific kinase/substrate pairs along with required cofactors were prepared in reaction buffer; 20 mM Hepes (pH 7.5), 10 mM MgCl2, 1 mM EGTA, 0.02% Brij35, 0.02 mg/mL BSA, 0.1 mM Na3VO4, 2 mM DTT, 1% DMSO. Compounds were delivered into the reaction, followed ˜20 min later by addition of a mixture of ATP (Sigma) and ^33P ATP (PerkinElmer) to a final concentration of […]. Reactions were carried out at 25° C. for 120 min, followed by spotting of the reactions onto P81 ion exchange filter paper (Whatman). Unbound phosphate was removed by extensive washing of filters in 0.75% phosphoric acid. […] IC50 values and curve fits were obtained using Prism (GraphPad Software).

The next assay deals with T2, FLT3 (Homo sapiens, UniProt P36888).
T2 construct: purchased Reaction Biology Corporation
T2 sequence (P36888 27-993): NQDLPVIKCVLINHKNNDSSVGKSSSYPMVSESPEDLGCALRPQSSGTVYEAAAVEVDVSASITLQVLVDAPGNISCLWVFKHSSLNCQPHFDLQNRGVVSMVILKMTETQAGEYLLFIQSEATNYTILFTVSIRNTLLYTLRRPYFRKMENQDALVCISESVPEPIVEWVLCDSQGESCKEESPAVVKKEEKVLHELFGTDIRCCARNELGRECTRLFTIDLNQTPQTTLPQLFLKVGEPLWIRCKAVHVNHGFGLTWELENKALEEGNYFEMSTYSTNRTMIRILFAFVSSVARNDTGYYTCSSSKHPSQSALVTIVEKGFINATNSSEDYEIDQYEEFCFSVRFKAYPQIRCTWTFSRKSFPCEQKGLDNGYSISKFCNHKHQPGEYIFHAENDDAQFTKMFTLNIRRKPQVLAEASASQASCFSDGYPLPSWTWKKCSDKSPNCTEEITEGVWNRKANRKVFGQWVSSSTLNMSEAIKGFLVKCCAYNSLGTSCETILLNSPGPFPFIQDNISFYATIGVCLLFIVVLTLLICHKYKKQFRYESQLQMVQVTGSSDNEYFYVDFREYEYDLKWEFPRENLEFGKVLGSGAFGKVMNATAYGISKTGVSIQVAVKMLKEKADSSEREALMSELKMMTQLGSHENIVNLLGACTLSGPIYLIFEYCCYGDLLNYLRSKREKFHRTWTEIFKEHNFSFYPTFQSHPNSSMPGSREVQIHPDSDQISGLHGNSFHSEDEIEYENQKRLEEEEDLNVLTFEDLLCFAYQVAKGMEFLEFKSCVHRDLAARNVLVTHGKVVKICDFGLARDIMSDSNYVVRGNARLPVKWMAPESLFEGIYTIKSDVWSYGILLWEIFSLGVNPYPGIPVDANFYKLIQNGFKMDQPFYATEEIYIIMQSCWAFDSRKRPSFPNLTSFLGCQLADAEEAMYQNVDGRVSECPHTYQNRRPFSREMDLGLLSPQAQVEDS
The experiment in a line: HotSpot kinase assay, FLT3. Type of assay: biochemical. Conditions: HotSpot radiometric 33P ATP assay, 25° C., 120 min. The protocol:
as §1, §2

Structures are written as SMILES.

What is called IC50 is the concentration that gives 50% inhibition. Lower therefore signals greater potency in that assay.

T1 sequence (Q14680 whole entry): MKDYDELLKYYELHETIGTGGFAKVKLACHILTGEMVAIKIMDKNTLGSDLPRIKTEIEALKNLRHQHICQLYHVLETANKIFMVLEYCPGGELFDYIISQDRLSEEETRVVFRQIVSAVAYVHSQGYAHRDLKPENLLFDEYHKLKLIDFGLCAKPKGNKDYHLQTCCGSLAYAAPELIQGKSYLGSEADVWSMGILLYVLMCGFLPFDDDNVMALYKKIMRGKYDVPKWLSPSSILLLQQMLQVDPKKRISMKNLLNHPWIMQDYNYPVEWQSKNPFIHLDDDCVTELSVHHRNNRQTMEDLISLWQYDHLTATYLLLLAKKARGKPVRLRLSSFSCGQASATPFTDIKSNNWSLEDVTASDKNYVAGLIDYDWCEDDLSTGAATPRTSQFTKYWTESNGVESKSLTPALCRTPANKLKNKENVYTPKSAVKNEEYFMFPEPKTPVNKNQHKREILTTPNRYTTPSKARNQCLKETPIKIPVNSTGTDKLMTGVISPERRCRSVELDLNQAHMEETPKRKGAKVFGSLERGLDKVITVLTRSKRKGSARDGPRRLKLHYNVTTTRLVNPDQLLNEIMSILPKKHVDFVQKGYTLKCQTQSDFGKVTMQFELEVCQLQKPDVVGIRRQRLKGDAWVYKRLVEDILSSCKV

Take `N[C@H]1CC[C@@H](COc2cncnc2-c2cnn(-c3ccccc3F)c2)CC1` [Compound I-25, (1s,4s)-4-(((4-(1-(2-fluorophenyl)-1H-pyrazol-4-yl)pyrimidin-5-yl)oxy)methyl)cyclo-hexan-1-amine]: the IC50 at MELK and against FLT3 was under 200 nM each time.
As to `N[C@H]1CC[C@H](COc2cncnc2-c2cnn(-c3ccccc3F)c2)CC1` [Compound I-26, (1r,4r)-4-(((4-(1-(2-fluorophenyl)-1H-pyrazol-4-yl)pyrimidin-5-yl)oxy)methyl)cyclo-hexan-1-amine], the IC50 on MELK and against FLT3 was under 200 nM throughout.
Take `Fc1ccccc1-n1cc(-c2ncnc(Cl)c2OCC2CCNCC2)cn1` [Compound I-27, 4-chloro-6-(1-(2-fluorophenyl)-1H-pyrazol-4-yl)-5-(piperidin-4-ylmethoxy)pyrim-idine]: the IC50 was 200 to 1000 nM against MELK and under 200 nM against FLT3.
Regarding `c1ccc(-n2cc(-c3ncncc3OCC3CCNCC3)cn2)cc1` [Compound I-28, 4-(1-phenyl-1H-pyrazol-4-yl)-5-(piperidin-4-ylmethoxy)pyrim-idine], the IC50 against MELK and against FLT3 was 200 to 1000 nM throughout.
On to `Fc1cccc(F)c1-n1cc(-c2ncnc(Cl)c2OCC2CCNCC2)cn1` [Compound I-29, 4-chloro-6-(1-(2,6-difluorophenyl)-1H-pyrazol-4-yl)-5-(piperidin-4-ylmethoxy)pyrim-idine], for which the IC50 is over 1000 nM at MELK and 200 to 1000 nM against FLT3.
Taken in the same sequence, the figures for `Fc1cccc(F)c1-n1cc(-c2ncncc2OCC2CCNCC2)cn1` [Compound I-30, 4-(1-(2,6-difluorophenyl)-1H-pyrazol-4-yl)-5-(piperidin-4-ylmethoxy)pyrim-idine] were 200 to 1000 nM and 200 to 1000 nM.
Taken in the same sequence, the figures for `OC1CCC(COc2cncnc2-c2cnn(-c3ccccc3F)c2)CC1` (stereo not shown) [Compound I-31, 4-(((4-(1-(2-fluorophenyl)-1H-pyrazol-4-yl)pyrimidin-5-yl)oxy)methyl)cyclo-hexan-1-ol] were over 1000 nM and 200 to 1000 nM.
Taken in the same sequence, the figures for `CN1CCN(c2ccc(-n3cc(-c4ncncc4OC[C@H]4CC[C@@H](N)CC4)cn3)cc2)CC1` [Compound I-32, (1s,4s)-4-(((4-(1-(4-(4-methylpiperazin-1-yl)phenyl)-1H-pyrazol-4-yl)pyrimidin-5-yl)oxy)methyl)cyclo-hexan-1-amine] were under 200 nM and under 200 nM.
In the case of `N[C@H]1CC[C@@H](COc2cncnc2-c2cnn(-c3ccc(N4CCOCC4)cc3)c2)CC1` [Compound I-33, (1s,4s)-4-(((4-(1-(4-morpholinophenyl)-1H-pyrazol-4-yl)pyrimidin-5-yl)oxy)methyl)cyclo-hexan-1-amine], the IC50 against MELK and on FLT3 was under 200 nM each time.
Consider `CCS(=O)(=O)c1ccc(-n2cc(-c3ncncc3OC[C@H]3CC[C@@H](N)CC3)cn2)cc1` [Compound I-34, (1s,4s)-4-(((4-(1-(4-(ethylsulfonyl)phenyl)-1H-pyrazol-4-yl)pyrimidin-5-yl)oxy)methyl)cyclo-hexan-1-amine], for which the IC50 against MELK is 200 to 1000 nM; against FLT3, under 200 nM.
Take `CCS(=O)(=O)c1ccc(-n2cc(-c3ncncc3OC[C@H]3CC[C@@H](N)CC3)cn2)c(F)c1` [Compound I-35, (1s,4s)-4-(((4-(1-(4-(ethylsulfonyl)-2-fluorophenyl)-1H-pyrazol-4-yl)pyrimidin-5-yl)oxy)methyl)cyclo-hexan-1-amine]: the IC50 against MELK and at FLT3 was 200 to 1000 nM each time.
